Source: patent publication US9663764B2, “Generation of cardiomyocytes from human pluripotent stem cells” (Wisconsin Alumni Research Foundation, priority 2011, dated 2017)

Tests used:
Format in all cases: cell-based, human
[1] = system: Smad1/5 and Smad2 phosphorylation in 19-9-11 ishcat cells; test: Smad1/5 and Smad2 phosphorylation, western blot; conditions: 12 μM CH treatment
Protocol: Western Blot Analysis: Cells were lysed in M-PER Mammalian Protein Extraction Reagent (Pierce) in the presence of Halt Protease and Phosphatase Inhibitor Cocktail (Pierce). Proteins were separated by 10% Tris-Glycine SDS/PAGE (Invitrogen) under denaturing conditions and transferred to a nitrocellulose membrane. After blocking with 5% milk in TBST, the membrane was incubated with primary antibody overnight at 4° C. The membrane was then washed, incubated with an anti-mouse/rabbit peroxidase-conjugated secondary antibody (1:1000, Cell Signaling) at room temperature for 1 hr, and developed by SuperSignal chemiluminescence (Pierce).
To determine whether canonical Wnt signaling requires TGFβ superfamily signaling to induce cardiogenesis, the inventors quantified cTnT+ cell generation in 19-9-11 ishcat-2 cells when Activin A and BMP4 signaling antagonists were presented during the first 24 hr of cardiomyocyte induction with 12 μM CH. All samples were treated with dox at 48 hours. […] To further investigate the role of TGFβ superfamily signaling in Wnt pathway-mediated cardiogenesis the inventors assessed Smad1/5 and Smad2 phosphorylation, downstream of BMP4 and Activin A signaling respectively. As expected, substantial Smad1/5 and Smad2 phosphorylation was detected in cells that had been treated with Activin A and BMP4 (FIGS. 9B and 10A).

H9-7TGP cells = test: Immunofluorescent analysis of CH-induced H9-7TGP GFP+ cells; conditions: 12 μM CHIR99021 in mTeSR1 for 4 days
Protocol: Immunostaining: Cells were fixed with 4% paraformaldehyde for 15 min at room temperature and then stained with primary and secondary antibodies in PBS plus 0.4% Triton X-100 and 5% non-fat dry milk (Bio-Rad). Nuclei were stained with Gold Anti-fade Reagent with DAPI (Invitrogen). An epifluorescence microscope (Leica DM IRB) with a QImaging® Retiga 4000R camera was used for imaging analysis. In order to probe the activation of canonical Wnt/β-catenin signaling during hPS cell specification to cardiomyocytes, the inventors generated a series of promoter-reporter cell lines in H1 and H9 hESC, and 19-9-11 human iPSC lines. These reporter lines, integrated with a lentiviral 7TGP vector, express GFP under control of a consensus TCF/LEF binding sequence promoter which reports β-catenin activation (FIG. 2A) (Fuerer and Nusse, PLoS One 5:e9370 (2010)). […] Approximately 50% of H9-7TGP cells expressed GFP at 4 days post-addition of 15 μM CH.

H9 hESCs = test: Cardiac differentiation via EBs after CH pretreatment, contracting outgrowths; conditions: 0-8 μM CH for three days prior to EB formation; spontaneously-contracting outgrowths
Protocol: Cardiac Differentiation Via EBs: hPS cells were passaged onto MEFs (˜13,000 cells/cm^2) and cultured in hESC medium for 2 days followed by another 3 days in hESC medium supplemented with BIO (Sigma) or CHIR99021 (Selleck). To form EBs, hPS cell aggregates generated by […] were cultured in low-attachment plates overnight in RPMI plus 20% KnockOut serum replacer. The next day, the EBs were cultured in EB20 (RPMI plus 20% FBS) for 4 days in suspension. EBs were then plated onto 0.1% gelatin-coated 6-well culture plates at 50-100 EBs/well, and cultured in EB20 medium. After 10 days of differentiation, the FBS concentration was reduced to 2% EB2 (RPMI plus 2% FBS). The number of contracting EBs was visually assessed using a microscope with a 37° C. heated stage. […] Undifferentiated H9 hESCs were cultured in the presence of 0-8 μM CH for three days prior to EB formation. EBs were cultured in suspension for 4 days before transferring to 0.1% gelatin coated plates. […] The inventors also applied the GSK3 inhibitors CH and BIO to undifferentiated H9 hESCs three days prior to directed differentiation to cardiomyocytes via Activin A and BMP4.

[2] = system: BMP2, BMP4 and NODAL expression in 19-9-11 ishcat-2 cells; test: RT-PCR of TGFβ pathway genes during CH-induced differentiation; conditions: upon 12 μM CH treatment
Protocol: RT-PCR and Quantitative RT-PCR: Total RNA was prepared with the RNeasy mini kit (QIAGEN) and treated with DNase (QIAGEN). 1 μg RNA was reverse transcribed into cDNA via Oligo (dT) with Superscript III Reverse Transcriptase (Invitrogen). Real-time quantitative PCR was done in triplicate with iQ SYBR Green SuperMix (Bio-Rad). RT-PCR was done with Gotaq Master Mix (Promega) and then subjected to 2% agarose gel electrophoresis. ACTB was used as an endogenous control. To determine whether canonical Wnt signaling requires TGFβ superfamily signaling to induce cardiogenesis, the inventors quantified cTnT+ cell generation in 19-9-11 […]-2 cells when Activin A and BMP4 signaling antagonists were presented during the first 24 hr of cardiomyocyte induction with 12 μM CH. All samples were treated with dox at 48 hours. […] To further investigate the role of TGFβ superfamily signaling in Wnt pathway-mediated cardiogenesis the inventors assessed Smad1/5 and Smad2 phosphorylation, downstream of BMP4 and Activin A signaling respectively. As expected, substantial Smad1/5 and Smad2 phosphorylation was detected in cells that had been treated with Activin A and BMP4 (FIGS. 9B and 10A).

[3] = system: 19-9-11 shcat-2 and scramble lines; test: Flow cytometry of Oct4 and brachyury in CH-treated 19-9-11 shcat-2 and scramble lines; conditions: for cells expressing Oct4: 4 days of CH (12 μM) in mTeSR1
Protocol: Flow Cytometry: Cells were dissociated into single cells and then fixed with 1% paraformaldehyde for 20 min at room temperature and stained with primary and secondary antibodies in PBS plus 0.1% Triton X-100 and 0.5% BSA. For the cell proliferation assay, a 17-hour pulse of BrdU was performed to identify dividing cardiomyocytes (Zhang et al., Circ. Res. 104, e30-41 (2009)). Data were collected on a FACSCaliber flow cytometer (Beckton Dickinson) and analyzed using FlowJo. To test whether induction of cardiomyocyte differentiation by GSK3 inhibitors requires β-catenin, the inventors treated the shcat-2 and scramble 19-9-11 lines with CH in mTeSR1 medium. While the shcat-2 line maintained an undifferentiated morphology, the scramble line appeared to undergo differentiation (FIG. 2E), similar to non-transduced lines treated with CH (FIGS. 1B and 2B). Induction of differentiation following CH treatment in the scramble control was further indicated by diminished SOX2 and NANOG expression at day 4 (FIG. 3C). […] After 4 days of CH treatment in mTeSR1, the percentage of cells expressing Oct4 decreased to 61% in the scramble line, while 98% of the shcat-2 cells expressed Oct4 (FIG. 3D). […] To better understand early mesoderm induction via GSK3 inhibition, the inventors analyzed expression of the early mesoderm gene T in scramble and shcat-2 19-9-11 lines. As CH concentration increased, the ratio of T expression in scramble to the shcat-2 line increased (FIG. 3E). Less than 2% of shcat-2 cells expressed brachyury upon exposure to different concentrations of CH treatment for 4 days.

Cc1c[nH]c(-c2cnc(NCCNc3ccc(C#N)cn3)nc2-c2ccc(Cl)cc2Cl)n1 [CH]
Smad1/5 and Smad2 activation [1]: levels comparable to those induced by Activin A and BMP4
Oct4, Isl1 and Nkx2.5 expression in CH-induced GFP+ cells (H9-7TGP cells): did not express Oct4, but did express Isl1 and Nkx2.5
CH concentration at which efficiency of cardiomyocyte differentiation peaked (H9 hESCs): 2 to 4 µM
NODAL expression [2]: transient upregulation
BMP2 and BMP4 gene expression ([2]; throughout differentiation): gradually upregulated
brachyury+ cells ([3]; scramble line, 15 μM CH for 4 days): 76%
cells expressing Oct4 ([3]; scramble line): 61%
cells expressing Oct4 ([3]; shcat-2 cells): 98%
cells expressing brachyury ([3]; shcat-2 cells, different concentrations of CH for 4 days): Less than 2%
